Results taken from patent US10792289B2 (Horizon Orphan LLC, priority 2009, dated 2020).

Test system: stable CF patients
Assay: Phase 2 study: pulmonary function (FEV1, FVC, FEF 25-75)
Type: in vivo, human
Parameters: FEF 25-75, Median / FEV1, Day 14, Mean / FEF 25-75, Mean: unit not given here; FEV1, Day 1, Mean / FEV1, Day 1, Median / FEV1, Day 14, Median / FEV1, Day 28, Mean / FEV1, Day 28, Median: unit: L
Conditions: EE population
Experimental: The following dosage regimens (as nebulizer loaded doses) were evaluated: 120 mg QD (daily); 240 mg QD (daily); and 240 mg BID (twice daily).
Efficacy endpoints including clinical endpoints, pulmonary function tests, and additional microbiological parameters were assessed as change from Day 1 to subsequent visits where the endpoint data was collected. Time to need for intravenous/oral/inhaled anti-pseudomonal antimicrobials were assessed from Day 1 until final visit using survival analysis. The primary population for efficacy analysis was the EE population, but efficacy endpoints were also analyzed using the MITT population.
Changes in FEV1 (forced expiratory volume in 1 second), FVC (forced vital capacity) and FEF 25-75 (forced expiratory flow 25-75%) from Day 1 to all subsequent visits were determined for patients. Tables 26 and 27 summarize the results for FEV1 measurements in EE and MITT populations, respectively. FIGS. 7 and 8 show graphs of percent change in FEV1 (L) and percent change in FEV1(L) vs. placebo, respectively, at Day 28 for the EET population treated with placebo, 120 mg QD, 240 mg QD, or 240 mg BID. […] Tables 28 and 29 summarize the results for predicted FEVI measurements in EE and MITT populations, respectively. Tables 30 and 31 summarize results for FEF 25-75 measurements in EE and MITT populations, respectively.

[1] = Day 1 (baseline), combined 240 mg QD and BID
[2] = Day 14, combined 240 mg QD and BID

C[C@H]1COc2c(N3CCN(C)CC3)c(F)cc3c(=O)c(C(=O)O)cn1c23 [Levofloxacin, levofloxacin]
% predicted FEV1, Day 1, Mean (120 mg QD): 54.0 % predicted
% predicted FEV1, Day 1, Median (120 mg QD): 53.0 % predicted
% predicted FEV1, Day 14, Mean (120 mg QD): 54.7 % predicted
% predicted FEV1, Day 14, Median (120 mg QD): 53.0 % predicted
% predicted FEV1, Day 28, Mean (120 mg QD): 55.0 % predicted
% predicted FEV1, Day 28, Median (120 mg QD): 52.0 % predicted
FEF 25-75, Percent Change from Baseline to Day 14, Mean (120 mg QD): 0.41%
FEF 25-75, Percent Change from Baseline to Day 14, Median (120 mg QD): 0.45%
FEF 25-75, Percent Change from Baseline to Day 28, Mean (120 mg QD): 0.73%
FEF 25-75, Percent Change from Baseline to Day 28, Median (120 mg QD): 2.70%
FEV1, Day 1, Mean (120 mg QD): 1.99
FEV1, Day 1, Median (120 mg QD): 1.87
FEV1, Day 14, Mean (120 mg QD): 2.00
FEV1, Day 14, Median (120 mg QD): 1.82
FEV1, Day 28, Mean (120 mg QD): 2.03
FEV1, Day 28, Median (120 mg QD): 1.91
FEV1, Percent Change from Baseline to Day 14, Mean (120 mg QD): 1.13%
FEV1, Percent Change from Baseline to Day 14, Median (120 mg QD): 0.56%
FEV1, Percent Change from Baseline to Day 28, Mean (120 mg QD): 1.71%
FEV1, Percent Change from Baseline to Day 28, Median (120 mg QD): 1.06%
% predicted FEV1, Day 1, Mean (240 mg BID): 48.2 % predicted
% predicted FEV1, Day 1, Median (240 mg BID): 45.5 % predicted
% predicted FEV1, Day 14, Mean (240 mg BID): 51.7 % predicted
% predicted FEV1, Day 14, Median (240 mg BID): 49.5 % predicted
% predicted FEV1, Day 28, Mean (240 mg BID): 50.5 % predicted
% predicted FEV1, Day 28, Median (240 mg BID): 49.0 % predicted
FEF 25-75, Percent Change from Baseline to Day 14, Mean (240 mg BID): 16.99%
FEF 25-75, Percent Change from Baseline to Day 14, Median (240 mg BID): 11.66%
FEF 25-75, Percent Change from Baseline to Day 28, Mean (240 mg BID): 13.11%
FEF 25-75, Percent Change from Baseline to Day 28, Median (240 mg BID): 5.71%
FEV1, Day 1, Mean (240 mg BID): 1.86
FEV1, Day 1, Median (240 mg BID): 1.70
FEV1, Day 14, Mean (240 mg BID): 2.02
FEV1, Day 14, Median (240 mg BID): 1.88
FEV1, Day 28, Mean (240 mg BID): 1.90
FEV1, Percent Change from Baseline to Day 14, Mean (240 mg BID): 8.87%
FEV1, Percent Change from Baseline to Day 14, Median (240 mg BID): 7.51%
FEV1, Percent Change from Baseline to Day 28, Mean (240 mg BID): 5.05%
FEV1, Percent Change from Baseline to Day 28, Median (240 mg BID): 4.55%
% predicted FEV1, Day 1, Mean (240 mg QD): 55.9 % predicted
% predicted FEV1, Day 1, Median (240 mg QD): 56.0 % predicted
% predicted FEV1, Day 14, Mean (240 mg QD): 57.7 % predicted
% predicted FEV1, Day 14, Median (240 mg QD): 62.0 % predicted
% predicted FEV1, Day 28, Mean (240 mg QD): 57.3 % predicted
% predicted FEV1, Day 28, Median (240 mg QD): 58.0 % predicted
FEF 25-75, Percent Change from Baseline to Day 14, Mean (240 mg QD): 9.58%
FEF 25-75, Percent Change from Baseline to Day 14, Median (240 mg QD): 4.41%
FEF 25-75, Percent Change from Baseline to Day 28, Mean (240 mg QD): 4.70%
FEF 25-75, Percent Change from Baseline to Day 28, Median (240 mg QD): 5.77%
FEV1, Day 1, Mean (240 mg QD): 2.09
FEV1, Day 1, Median (240 mg QD): 2.02
FEV1, Day 14, Mean (240 mg QD): 2.16
FEV1, Day 14, Median (240 mg QD): 2.09
FEV1, Day 28, Mean (240 mg QD): 2.13
FEV1, Day 28, Median (240 mg QD): 2.15
FEV1, Percent Change from Baseline to Day 14, Mean (240 mg QD): 3.84%
FEV1, Percent Change from Baseline to Day 14, Median (240 mg QD): 1.92%
FEV1, Percent Change from Baseline to Day 28, Mean (240 mg QD): 2.51%
FEV1, Percent Change from Baseline to Day 28, Median (240 mg QD): 1.28%
% predicted FEV1, Day 1, Mean (Combined 240 mg QD and BID): 52.1 % predicted
% predicted FEV1, Day 1, Median (Combined 240 mg QD and BID): 51.0 % predicted
% predicted FEV1, Day 14, Mean (Combined 240 mg QD and BID): 54.7 % predicted
% predicted FEV1, Day 14, Median (Combined 240 mg QD and BID): 52.0 % predicted
% predicted FEV1, Day 28, Mean (Combined 240 mg QD and BID): 54.0 % predicted
% predicted FEV1, Day 28, Median (Combined 240 mg QD and BID): 54.0 % predicted
FEF 25-75, Percent Change from Baseline to Day 14, Mean (Combined 240 mg QD and BID): 13.23%
FEF 25-75, Percent Change from Baseline to Day 14, Median (Combined 240 mg QD and BID): 8.79%
FEF 25-75, Percent Change from Baseline to Day 28, Mean (Combined 240 mg QD and BID): 8.78%
FEF 25-75, Percent Change from Baseline to Day 28, Median (Combined 240 mg QD and BID): 5.74%
FEV1, Day 1, Mean (Combined 240 mg QD and BID): 1.98
FEV1, Day 1, Median (Combined 240 mg QD and BID): 1.81
FEV1, Day 14, Mean (Combined 240 mg QD and BID): 2.09
FEV1, Day 14, Median (Combined 240 mg QD and BID): 2.03
FEV1, Day 28, Mean (Combined 240 mg QD and BID): 2.02
FEV1, Day 28, Median (Combined 240 mg QD and BID): 1.98
FEV1, Percent Change from Baseline to Day 14, Mean (Combined 240 mg QD and BID): 6.32%
FEV1, Percent Change from Baseline to Day 14, Median (Combined 240 mg QD and BID): 3.94%
FEV1, Percent Change from Baseline to Day 28, Mean (Combined 240 mg QD and BID): 3.75%
FEV1, Percent Change from Baseline to Day 28, Median (Combined 240 mg QD and BID): 2.80%
FEF 25-75, Mean (Day 1 (baseline), 120 mg QD): 1.17
FEF 25-75, Median (Day 1 (baseline), 120 mg QD): 0.98
FEF 25-75, Mean (Day 1 (baseline), 240 mg BID): 0.85
FEF 25-75, Median (Day 1 (baseline), 240 mg BID): 0.68
FEF 25-75, Mean (Day 1 (baseline), 240 mg QD): 1.22
FEF 25-75, Median (Day 1 (baseline), 240 mg QD): 1.10
FEF 25-75, Mean [1]: 1.04
FEF 25-75, Median [1]: 0.83
FEF 25-75, Mean (Day 14, 120 mg QD): 1.18
FEF 25-75, Median (Day 14, 120 mg QD): 0.99
FEF 25-75, Mean (Day 14, 240 mg BID): 1.00
FEF 25-75, Median (Day 14, 240 mg BID): 0.78
FEF 25-75, Mean (Day 14, 240 mg QD): 1.33
FEF 25-75, Median (Day 14, 240 mg QD): 1.11
FEF 25-75, Mean [2]: 1.17
FEF 25-75, Median [2]: 0.92
FEF 25-75, Mean (Day 28, 120 mg QD): 1.23
FEF 25-75, Median (Day 28, 120 mg QD): 1.03
FEF 25-75, Mean (Day 28, 240 mg BID): 0.93
FEF 25-75, Median (Day 28, 240 mg BID): 0.78
FEF 25-75, Mean (Day 28, 240 mg QD): 1.27
FEF 25-75, Median (Day 28, 240 mg QD): 1.15
FEF 25-75, Mean (Day 28, combined 240 mg QD and BID): 1.10
